Results reported in patent US10667517B2, “2-(Het)aryl-substituted fused heterocycle derivatives as pesticides” (BAYER CROPSCIENCE AKTIENGESELLSCHSAFT, priority 2015, dated 2020).

How the values were obtained:
[1] = test system: Musca domestica; assay: Musca domestica test; assay type: in vivo; settings: application rate 100 ppm; adult houseflies, sponge with sugar solution; after 2 days
Procedure: Musca domestica Test • Solvent: dimethyl sulphoxide To produce a suitable active compound preparation, 10 mg of active compound are mixed with 0.5 ml of dimethyl sulphoxide, and the concentrate is diluted with water to the desired concentration. Vessels containing a sponge treated with sugar solution and the active compound preparation of the desired concentration are populated with 10 adult houseflies (Musca domestica). After 2 days, the kill in % is determined. 100% means that all of the flies have been killed; 0% means that none of the flies have been killed.

[2] = test system: Spodoptera frugiperda; assay: Spodoptera frugiperda - spray test; assay type: in vivo; settings: application rate 500 g/ha; armyworm caterpillars on maize leaf discs; after 7 days
Procedure: Spodoptera frugiperda—Spray Test
(§1) • Solvent: 78.0 parts by weight of acetone • 1.5 parts by weight of dimethylformamide • Emulsifier: alkylaryl polyglycol ether
(§2) To produce a suitable active compound preparation, 1 part by weight of active compound is dissolved with the stated parts by weight of solvent and made up with water containing an emulsifier concentration of 1000 ppm until the desired concentration is attained. To produce further test concentrations, the preparation is diluted with emulsifier-containing water.
Leaf discs of maize (Zea mays) are sprayed with an active compound preparation of the desired concentration and, after drying, populated with caterpillars of the armyworm (Spodoptera frugiperda).
After 7 days, the efficacy in % is determined. 100% means that all the caterpillars have been killed; 0% means that no caterpillars have been killed.

[3] = test system: Ctenocephalides felis; assay: Ctenocephalides felis - oral test; assay type: in vivo; settings: application rate 100 ppm in citrated cattle blood; adult cat fleas; after 2 days
Procedure: Ctenocephalides felis—Oral Test • Solvent: dimethyl sulphoxide To produce a suitable active compound preparation, 10 mg of active compound are mixed with 0.5 ml of dimethyl sulphoxide. Dilution with citrated cattle blood gives the desired concentration. About 20 unfed adult cat fleas (Ctenocephalides felis) are placed into a chamber which is closed at the top and bottom with gauze. A metal cylinder whose bottom end is closed with parafilm is placed onto the chamber. The cylinder contains the blood/active compound preparation, which can be imbibed by the fleas through the parafilm membrane. After 2 days, the kill in % is determined. 100% means that all of the fleas have been killed; 0% means that none of the fleas have been killed.

[4] = test system: Myzus persicae; assay: Myzus persicae - spray test; assay type: in vivo; settings: application rate 500 g/ha; all stages of green peach aphid on Chinese cabbage leaf discs; after 5-6 days
Procedure: Myzus persicae—Spray Test
• Solvent: 78 parts by weight of acetone • 1.5 parts by weight of dimethylformamide • Emulsifier: alkylaryl polyglycol ether
as §2
Discs of Chinese cabbage leaves (Brassica pekinensis) infested by all stages of the green peach aphid (Myzus persicae) are sprayed with an active compound preparation of the desired concentration.
After 5-6 days, the efficacy in % is determined. 100% means that all the aphids have been killed; 0% means that no aphids have been killed.

[5] = test system: Phaedon cochleariae; assay: Phaedon cochleariae - spray test; assay type: in vivo; settings: application rate 500 g/ha, mustard beetle larvae on Chinese cabbage leaf discs, after 7 days; for pest or weed control at 500 g/ha: Phaedon cochleariae, foliar, 168 h, read-out: efficacy
Procedure: Phaedon cochleariae—Spray Test
as §1, §2
After 7 days, the efficacy in % is determined. 100% means that all the beetle larvae have been killed; 0% means that no beetle larvae have been killed.

[6] = test system: Lucilia cuprina; assay: Lucilia cuprina test; assay type: in vivo; settings: application rate 100 ppm; L1 larvae in minced horsemeat; after 2 days
Procedure: Lucilia cuprina Test • Solvent: dimethyl sulphoxide To produce a suitable active compound preparation, 10 mg of active compound are mixed with 0.5 ml of dimethyl sulphoxide, and the concentrate is diluted with water to the desired concentration. About 20 L1 larvae of the Australian sheep blowfly (Lucilia cuprina) are transferred into a test vessel containing minced horsemeat and the active compound preparation of the desired concentration. After 2 days, the kill in % is determined. 100% means that all the larvae have been killed; 0% means that no larvae have been killed.

[7] = test system: Ctenocephalides felis; assay: Ctenocephalides felis - in vitro contact tests with adult cat fleas; assay type: in vivo; settings: application rate 5 μg/cm^2 (500 g/ha); adult cat fleas in coated tubes; after 48 h; dead or moribund
Procedure: Ctenocephalides felis—In Vitro Contact Tests with Adult Cat Fleas
(§3) For the coating of the test tubes, 9 mg of active compound are first dissolved in 1 ml of acetone p.a. and then diluted to the desired concentration with acetone p.a. 250 μl of the solution are distributed homogeneously on the inner walls and the base of a 25 ml test tube by turning and rocking on an orbital shaker (rocking rotation at 30 rpm for 2 h). With 900 ppm active compound solution and internal surface 44.7 cm^2, given homogeneous distribution, an area-based dose of 5 μg/cm^2 is achieved.
After the solvent has evaporated off, the tubes are populated with 5-10 adult cat fleas (Ctenocephalides felis), sealed with a perforated plastic lid and incubated in a horizontal position at room temperature and ambient humidity. After 48 h, efficacy is determined. To this end, the test tubes are stood upright and the fleas are knocked to the base of the tube. Fleas which remain motionless at the base or move in an uncoordinated manner are considered to be dead or moribund.
100% efficacy means that all the fleas were dead or moribund. 0% efficacy means that no fleas were harmed.

[8] = log P (neutral), HPLC on reversed-phase column (C 18), LC-MS neutral range; assay type: physicochemical; settings: pH 7.8, ammonium hydrogencarbonate/acetonitrile; for chromatographic logP: reversed-phase HPLC column (C 18), pH 7.8, HPLC reversed-phase C 18, 55° C.; for log P (neutral): HPLC reversed-phase C 18, 55° C.
Procedure: Temperature: 55° C. […] Called log P (neutral) in the table.

[9] = test system: Meloidogyne incognita; assay: Meloidogyne incognita test; assay type: in vivo; settings: application rate 20 ppm; egg/larvae suspension with lettuce seeds in sand; formation of galls after 14 days
Procedure: Meloidogyne incognita Test • Solvent: 125.0 parts by weight of acetone To produce a suitable preparation of active compound, 1 part by weight of active compound is mixed with the stated amount of solvent and the concentrate is diluted with water to the desired concentration. Vessels are filled with sand, active compound solution, an egg/larvae suspension of the southern root-knot nematode (Meloidogyne incognita) and lettuce seeds. The lettuce seeds germinate and the plants develop. The galls develop on the roots. After 14 days, the nematicidal efficacy in % is determined by the formation of galls. 100% means that no galls were found; 0% means that the number of galls on the treated plants corresponds to the untreated control.

[10] = test system: Tetranychus urticae; assay: Tetranychus urticae - spray test, OP-resistant; assay type: in vivo; settings: application rate 500 g/ha; all stages of greenhouse red spider mite on bean leaf discs; after 6 days
Procedure: Tetranychus urticae—Spray Test, OP-Resistant
as §1, §2
Discs of bean leaves (Phaseolus vulgaris) infested with all stages of the greenhouse red spider mite (Tetranychus urticae) are sprayed with an active compound preparation of the desired concentration.
After 6 days, the efficacy in % is determined. 100% means that all the spider mites have been killed; 0% means that no spider mites have been killed.

[11] = test system: Rhipicephalus sanguineus; assay: Rhipicephalus sanguineus - in vitro contact tests with adult brown dog ticks; assay type: in vivo; settings: application rate 5 μg/cm^2 (500 g/ha); adult brown dog ticks in coated tubes; after 48 h; dead or moribund
Procedure: Rhipicephalus sanguineus—In Vitro Contact Tests with Adult Brown Dog Ticks
as §3
After the solvent has evaporated off, the tubes are populated with 5-10 adult dog ticks (Rhipicephalus sanguineus), sealed with a perforated plastic lid and incubated in a horizontal position in the dark at room temperature and ambient humidity. After 48 h, efficacy is determined. To this end, the ticks are knocked to the base of the tube and incubated on a hotplate at 45-50° C. for not more than 5 min. Ticks which remain motionless on the base or move in such an uncoordinated manner that they are unable to deliberately avoid the heat by climbing upwards are considered to be dead or moribund.
An efficacy of 100% means that all the ticks were dead or moribund. 0% efficacy means that none of the ticks were harmed.

[12] = test system: Boophilus microplus; assay: Boophilus microplus - injection test; assay type: in vivo; settings: application rate 20 μg/animal; injected into engorged adult female cattle ticks; laying of fertile eggs after 7 days
Procedure: Boophilus microplus—Injection Test
• Solvent: dimethyl sulphoxide
To produce a suitable active compound preparation, 10 mg of active compound are mixed with 0.5 ml of solvent and the concentrate is diluted with solvent to the desired concentration. 1 μl of the active compound solution is injected into the abdomen of 5 engorged adult female cattle ticks (Boophilus microplus). The animals are transferred into dishes and kept in a climate-controlled room.
Efficacy is assessed after 7 days by laying of fertile eggs. Eggs which are not visibly fertile are stored in a climate-controlled cabinet until the larvae hatch after about 42 days. An efficacy of 100% means that none of the ticks has laid any fertile eggs; 0% means that all the eggs are fertile.

Structure (SMILES) | efficacy (kill) [1] | efficacy [2] | efficacy (kill) [3] | efficacy [4] | pest or weed control at 500 g/ha [5] | efficacy (kill) [6] | efficacy [7] | chromatographic logP [8] | nematicidal efficacy [9] | efficacy [10] | efficacy [5] | efficacy [11] | log P (neutral) [8] | efficacy [12]
CCS(=O)(=O)c1ccc(NC(C)=O)nc1-c1nc2cc(C(F)(F)F)ccc2n1C [Example I-2, N-{5-(Ethylsulphonyl)-6-[1-methyl-5-(trifluoromethyl)-1H-benzimidazol-2-yl]pyridin-2-yl}acetamide] | 90% | 100% | 95% | 100% | 100% | 100% | 100% | 2.5 |  |  |  |  |  | 
CCS(=O)(=O)c1ccc(N)nc1-c1nc2cc(C(F)(F)F)cnc2n1C [Example I-6, 5-(Ethylsulphonyl)-6-[3-methyl-6-(trifluoromethyl)-3H-imidazo[4,5-b]pyridin-2-yl]pyridin-2-amine] |  |  |  | 90% | 100% |  |  | 2.02 | 90% |  |  |  |  | 
CCS(=O)(=O)c1ccc(N)nc1-c1nc2cc3c(cc2n1C)OC(F)(F)O3 [Example I-8, 6-(2,2-Difluoro-7-methyl-[1,3]dioxolo[4,5-f]benzimidazol-6-yl)-5-ethylsulphonylpyridin-2-amine] |  | 100% |  | 90% | 100% |  |  | 2.1 |  | 90% |  |  |  | 
CCS(=O)(=O)c1ccc(NC(=O)C(F)(F)F)nc1-c1nc2cc(C(F)(F)F)ccc2n1C [Example I-11] |  |  | 100% | 90% |  | 100% | 100% |  |  |  | 100% | 80% | 3.27 | 
CCS(=O)(=O)c1ccc(NC(=O)C(F)(F)F)nc1-c1nc2cc(C(F)(F)F)cnc2n1C [Example I-15] |  | 83% |  | 100% |  |  |  |  | 90% |  | 100% |  | 2.00 | 
CCS(=O)(=O)c1ccc(NC(=O)C(C)CS(C)(=O)=O)nc1-c1nc2cc(C(F)(F)F)cnc2n1C (stereo not shown) [Example I-21] |  |  |  | 90% |  |  |  |  | 90% |  | 100% |  | 2.31 | 
CCS(=O)(=O)c1ccc(-n2cncn2)nc1-c1nc2cc(C(F)(F)F)cnc2n1C [Example I-22] |  | 100% | 100% | 100% |  | 100% | 100% |  |  |  | 100% |  |  | 80%
